Source: patent US20220401465A1, “USES OF NAD+ AND/OR NAD+ INHIBITORS AND/OR NAD+ AGONISTS AND COMBINATION PREPARATION THEREOF” (ShanghaiTech University, priority 2019, published 2022)

Legend:
[1] = test system: K562-CD19-mCherry-luciferase cells; test: Subcutaneous K562-CD19-mCherry-luciferase solid tumor model in NSG mice, in vivo imaging and survival; details: NAM alone i.p. daily 100 μL at 1 g/ml in saline, versus saline, n=5
Method: In cells with K562-CD19-mCherry, as described previously, luciferase was then overexpressed through the lentiviral system. […] Since subcutaneously injected K562 cells also overexpressed Luciferase, intracellular fluorescence can be excited after intraperitoneal injection of the substrate luciferin (PerkinElmer 122799) in mice, and tumor growth in mice can be collected by in vivo imaging. Before CAR-T cells were injected into the tail vein of mice, the fluorescence signal intensity of mouse tumor cells was detected as the starting point, and then the fluorescence intensity of mouse tumor cells was detected every 7 days. For detection, the mice were intraperitoneally injected with 150 μL of D-luciferin potassium salt at a concentration of 10 mg/ml, and 10 minutes later, the fluorescence of tumor cells was detected using IVIS® LuminaIII small animal in vivo imaging system. The stronger the fluorescence, the more tumor cells and the faster the tumor growth.

T cells in PBMC [2] = test: CD69 expression on T cells after anti-CD3/CD28 activation of PBMC (flow cytometry); assay type: cell-based, human
Method: (§1) Human peripheral blood mononuclear cells (PBMC) were diluted 1:1 with fresh blood and normal saline (Meilun Biological MA0083) and then added flat to the upper layer of an equal volume of Histopaque®-1077 (Sigma10771) separation solution. The cells were centrifuged slowly for 30 min at 500 g at room temperature. After centrifugation, the white membrane layer between the plasma and the separation solution was imbibed and washed with normal saline. After repeated washing, the cells were resuspended with 10% FBS (Thermofisher 10099141C) RPMI (Corning10-040-CV) medium for later use.
(§2) The concentration of PBMC cells was adjusted to no more than 0.5 million/ml, and the final concentration of 1 μM FK866 (Selleck S2799), 100 μM NAD+ (Selleck S2518), or 1μM FK866, and 100 μM NAD+ were added respectively. The cells after drug addition were cultured in a cell incubator for 24 hours at 37° C., with 5% CO2.
Highly adsorbed 96-well plates were coated with CD28 (Biolegend 102112), and CD3 (Thermofisher 14-0037-82) antibodies at the final concentration of 0 or 3 μg/ml, the PBMC cells treated with the above different treatments were added to the well plates, respectively. After 24 h stimulation, the cells were collected for CD69 staining. […] After washing with Staining buffer, the cells were resuspended with staining buffer containing DAPI and then detected on BD LSRFortessa. […]

T cells in PBMC [3] = test: Intracellular tyrosine phosphorylation after anti-CD3/CD28 activation of PBMC (WB, 4G10 antibody); assay type: cell-based, human; details: 1 μM FK866 24 h, then CD3/CD28 antibody stimulation 5 min, versus solvent
Method: as §1, §2
Highly adsorbed 96-well plates were coated with CD28 (Biolegend 102112), and CD3 (Thermofisher 14-0037-82) antibodies at the final concentration of 0 or 3 μg/ml, the PBMC cells treated with the above different treatments were added to the well plates, respectively. […] WB testing: after cell collection, the cells were lysed to extract proteins, which were then electrophoretically transferred and detected with 4G10 antibody (Millipore16-103) for anti-Phosphotyrosine testing. […]

Structure (SMILES)	effect on the fluorescence intensity and tumor growth of tumor cells [1]	CD69 on the surface of T cells (T cells in PBMC [2]; PBMC, 1 μM FK866 24 h, then CD3/CD28 antibody stimulation 24 h, versus solvent)	T cell activation ability (T cells in PBMC [2]; concluded from CD69 and phosphorylation levels when NAD+ synthesis was inhibited)	intracellular phosphorylation levels (tyrosine) (T cells in PBMC [3])
NC(=O)c1cccnc1 [Nicotinamide (NAM), Nicotinamide]	no significant effect			
O=C(/C=C/c1cccnc1)NCCCCC1CCN(C(=O)c2ccccc2)CC1 [FK866]		significantly reduced	significantly decreased	significantly reduced
